Source: US20040053962A1, “Methods for inhibiting proliferation and inducing apoptosis in cancer cells” (priority 2003, published 2004)

Tests used:
[1] = tested on: MiaPaCa-2 pancreatic cancer cell line; assay: [3H]-thymidine incorporation (DNA synthesis), MiaPaCa-2; type: cell-based
Description: (§1) Cell culture. The following pancreatic cancer cell lines were used: MiaPaCa-2 and PANC-1 (poorly-differentiated); Capan-1 and Capan-2 (well-differentiated); and HPAF and AsPC-1 (pleomorphic). These were purchased from American Type Culture Collection (Rockville, Md.). PANC-1 and MiaPaCa-2 were grown in DMEM media; HPAF and AsPC-1 were grown in MEM media; and Capan-1 and Capan-2 were grown in-McCoy's media. Media were supplemented with 10% FBS, and the cells were grown as monolayers in a humidified atmosphere of […] and 5% CO2 at 37° C. The cells were regularly seeded into 75 cm^2 flask with media changed every other day. For experiments, cells were grown to 80% confluence, digested with trypsin-EDTA, and plated either in 12 or 24-well plates at a concentration of 50,000/ml, as appropriate.
(§2) DNA synthesis by [^3H]-Thymidine incorporation. Cells were plated in 12 or 24-well plates. After reaching 70% confluence, they were incubated in serum-free media for 24 hours, which was then replaced with fresh serum-free media with or without the appropriate concentration of leukotriene B4 receptor antagonist LY293111 (62.5-1000 nM), LTB4 (100-400 nM), or both. After the appropriate period of culture, cellular DNA synthesis was assayed by adding 0.5 μCi/well of [^3H]-methyl-thymidine and incubating for another 2 hours. Then, the cells were washed twice with PBS, fixed with 10% trichloroacetic acid (“TCA”) for 30 minutes, and solubilized by adding 0.4 M NaOH to each well. Radioactivity, indicating incorporation of ^3H-thymidine into DNA, was measured by adding a scintillation cocktail and counting on a scintillation counter (LKB RackBeta, Wallac, Turku, Finland)

[2] = tested on: AsPC-1 pancreatic cancer cell line; assay: [3H]-thymidine incorporation (DNA synthesis), AsPC-1; type: cell-based, human; details: mean±SEM; for proliferation (thymidine incorporation), % control: 24 hours
Description: as §1, §2

[3] = tested on: MiaPaCa-2 pancreatic cancer cells; assay: Cell proliferation assay (cell number, Coulter counter); type: cell-based; details: 500 nM for 24, 48, and 72 hours (FIG. 2)
Description: as §1
Cell proliferation assay. Pancreatic cancer cells were seeded into 24-well microplates and incubated at 37° C. […] At the end of each time period, the cells were trypsinized to produce a single cell suspension, and the cell number in each well was determined using a Zi-Coulter Counter (Luton, Bedfordsire, United Kingdom).

[4] = tested on: MiaPaCa-2 pancreatic cancer cells; assay: Morphological changes by phase-contrast microscopy, MiaPaCa-2; type: cell-based; details: MiaPaCa-2, 250 nM, as early as 4 hours after treatment; interpreted as reflecting apoptosis
Description: Morphological changes using light microscope. Pancreatic cancer cells grown in 75 cm^2 flasks were treated with different concentrations of LY293111 for different periods of time. They were then viewed by phase-contrast microscopy, and photographs were taken.

[5] = tested on: pancreatic, colonic, and breast cancer cell lines; assay: Proliferation by thymidine incorporation and cell number, all lines studied; type: cell-based
Description: as §2
Cell proliferation assay. Pancreatic cancer cells were seeded into 24-well microplates and incubated at 37° C. After 24 hours, cells were cultured in serum-free media with or without 250 nM LY293111 for 24, 48, and 72 hours. At the end of each time period, the cells were trypsinized to produce a single cell suspension, and the cell number in each well was determined using a Zi-Coulter Counter (Luton, Bedfordsire, United Kingdom). […]

CCCc1c(OCCCOc2cc(O)c(-c3ccc(F)cc3)cc2CC)cccc1Oc1ccccc1C(=O)O [LY293111, 2-(2-propyl-3-(3-(2-ethyl-4-(4-fluorophenyl)-5-hydroxyphenoxy)propoxy)-phenoxy)benzoic acid]
decrease of proliferation ([1]; MiaPaCa-2 (FIG. 6A), LY293111 250 nM, 24 hours): 50% | proliferation with combination of LTB4 and LY293111 ([1]; MiaPaCa-2, 250 nM LY293111 + 100 nM LTB4, 24 hours): restored to almost the control level | effect on thymidine incorporation ([1]; MiaPaCa-2, concentration-dependent (FIG. 1A, P<0.0001) and time-dependent (FIG. 1B, P<0.0001)): inhibition of thymidine incorporation | proliferation (thymidine incorporation), % control ([2]; AsPC-1, LY293111 62.5 nM): 90.6 ± 4.6 % control | proliferation (thymidine incorporation), % control ([2]; AsPC-1, LY293111 125 nM): 72.8 ± 5.4 % control | proliferation (thymidine incorporation), % control ([2]; AsPC-1, LY293111 250 nM): 44.5 ± 7.7 % control | proliferation, % control (time course) ([2]; AsPC-1, LY293111 500 nM, 6 h): 65.8 ± 7.7 % control | proliferation, % control (time course) ([2]; AsPC-1, LY293111 500 nM, 12 h): 44.7 ± 4.1 % control | proliferation, % control (time course) ([2]; AsPC-1, LY293111 500 nM, 24 h): 16.7 ± 2.1 % control | proliferation (thymidine incorporation), % control ([2]; AsPC-1, LY293111 500 nM): 18.4 ± 6.9 % control | proliferation (thymidine incorporation), % control ([2]; AsPC-1, LY293111 1000 nM): 7.3 ± 1.2 % control | effect on cell number [3]: inhibition | morphological changes (phase-contrast microscopy) [4]: marked morphological changes | effect on proliferation (thymidine incorporation and cell number) [5]: profound concentration-dependent and time-dependent inhibition of proliferation
